We go through one compound from patent publication US10806717B2, “Methods and compositions for improving cognitive function” (The Johns Hopkins University, priority 2013, dated 2020).

Data set [1] deals with Age-Impaired (AI) Long-Evans rats. Description: Morris Water Maze retention trial, levetiracetam i.p. In kind it is in vivo, rat. On the procedure: The MWM apparatus consists of a large, circular pool (diameter 1.53 m; height, 0.58 m) filled with water (27° C.) that is made opaque through the addition of non-toxic pigment or some other substance. In the typical “hidden platform” version of the test, rats are trained to find a camouflaged white escape platform (height, 34.5 cm) that is positioned in the center of one quadrant of the maze about 1.0 cm below the water surface. This platform can be retracted to the bottom of the tank or raised to its normal position from outside the maze during behavioral testing. The location of the platform remains constant from trial to trial. Because there are no local cues that mark the position of the platform, the rat's ability to locate it efficiently from any starting position at the perimeter of the pool depends on using information surrounding the maze. The maze is surrounded by black curtains to which white patterns are affixed to provide a configuration of spatial cues. A second platform (height 37.5 cm), with its surface painted black is elevated 2 cm above the water surface during cue training to control for factors unrelated to cognition. The behavior of a rat in the pool is recorded by a camera that is suspended 2.5 m above the center of the pool. The camera is connected to a video tracking system (HVS Image Advanced Tracker VP200) and a PC computer running HVS software developed by Richard Baker of HVS Image, Hampton, UK. Six Age-Impaired (AI) Long-Evans rats (as characterized above) were tested for their memory of new spatial information in the MWM, under different drug/control treatment conditions (vehicle control and two different dosage levels of levetiracetam). The MWM protocol was substantially the same as the one described in Example 1. Specifically for this study, a retention trial was performed after the training trials, as described below. AI rats were given six training trials per training day with a 60-sec inter-trial interval between each training trial for two consecutive days. […]

In data set [2] the test system is aMCI subjects. In words: fMRI activity of medial temporal lobe subregions during memory judgments. Format: in vivo, human.
The subject of data set [3] is reelin in Entorhinal Cortex (EC2). In words: In situ hybridization of reelin mRNA after chronic levetiracetam. Particulars: levetiracetam 10 mg/kg/day, osmotic minipumps, four weeks (28 days), aged-impaired rats; vs AI-VEH p=0.033. Format: in vivo, rat.
For data set [4] the following is noted: cited from earlier work.
[5] abbreviates: levetiracetam 10 mg/kg/day i.p.

“Also recorded” adds a separate entry of the source.

For the compound `CC[C@@H](C(N)=O)N1CCCC1=O` [levetiracetam, (2S)-2-(2-oxopyrrolidin-1-yl)butanamide], the entries for the “memory performance (time in target quadrant) compared to vehicle” value in data set [1] (levetiracetam 5 mg/kg/day i.p.) and in data set [1] (setting [5]) were “did not significantly improve” and “significantly improved memory”, respectively. The “time spent in the target annulus” value in data set [1] (setting [5]) is “effectivness of the 10 mg/kg/day levetiracetam treatment was also seen”. Besides, the “DG/CA3 hyperactivity during memory judgments” value in data set [2] (levetiracetam 62.5 mg BID for two weeks, N=20) is given as “does not significantly reduce”; in data set [2] (levetiracetam 250 mg BID for two weeks, N=17) it was “does not significantly reduce”. Further, the “entorhinal cortex (EC) activity during memory judgments” value in data set [2] (levetiracetam 125 mg twice a day for two weeks vs placebo) is “increases EC activity”. In data set [2] (levetiracetam 125 mg twice a day for two weeks vs placebo, p=0.037), the “DG/CA3 activity during lure stimuli correctly identified as similar” value is listed as “reduces DG/CA3 hyper-activity”. Moreover, the “reelin (mRNA expression) in entorhinal cortex” value in data set [3] is reported as “restores the levels of reelin; also recorded: significantly increased the expression of reelin”. For the same compound, in data set [4] (after oral administration), the absorption entry is “rapidly and almost completely absorbed”. The “Plasma half-life expected in elderly” value in data set [4] (elderly, due to decreased renal function) was 9 to 10 h. In data set [4] (following oral administration), the “time of peak plasma concentrations” value is “about 1 hour”. Moreover, the Plasma half-life entry in data set [4] (in vivo) was “approximately 7±1 hour”. Besides, the “time to steady state” value in data set [4] (multiple twice-daily dosing) is 2 days. Moreover, the “effect of food on bioavailability” value in data set [4] (oral) is recorded as “not affected by food”.
